Experimental data reported in patent publication US6605604B1, “Carboxylic and hydroxamic acid compounds inhibiting metalloproteases, method for preparing same and pharmaceutical compositions containing them” (Les Laboratoires Servier, priority 1998, dated 2003).

Legend:
[1] = system: B16F10 melanoma; conditions: BDF1 mice, B16F10 cells i.v. on day 1; compound i.v. at 100 mg/kg from day 0 to day 3; metastases counted on day 11
Description: Inhibition of the Formation of Metastases in the Mouse
The anti-tumour activity of the compounds of the invention was studied in the model of B16F10 melanoma grafted by the i.v. route. […] The parameter measured is thus the number of pulmonary metastases.
B16F1O tumour cells are injected by the i.v. route into BDF1 mice on day 1 (1 10^5 cells per mouse). The compounds are administered by the i.v. route at 100 mg/kg from day 0 to day 3 (7 animals per experimental group). On day 11, the animals are sacrificed and the pulmonary metastases are counted. The results are expressed as % inhibition compared with the control animals.

[2] = system: rabbit cartilage collagen matrix degradation induced by IL-1β; conditions: read-out: IC50, collagen degradation (OH-proline release), IL-1β 10 ng/ml and plasmin 0.1 U/ml, 2 days
Description: The compounds of the invention were studied using a rabbit cartilage collagen matrix degradation model with degradation being induced by IL-1β. The tissue is placed in contact with IL -1β (10 ng/ml) and plasmin (0.1 U/ml) for 2 days. The fraction of OH-proline salted out by the tissue is evaluated by colorimetric measurement (GRANT R. A. Estimation of OH-proline by the autoanalyzer, J. Clin. Path. 1964, 17 685). The compounds of the invention were studied after the addition of various concentrations to the culture medium during the two days of the test.

[3] = system: ovarian cancers; conditions: Becket et al., DDT 1996, 1, 16; cited from earlier work

Structure (SMILES) | inhibition of the formation of pulmonary metastases, % inhibition compared with the control animals [1] [%] | IC50 [2] [nM] | anti-tumour activity in clinical use [3]
O=C(O)[C@H]1[C@H](Cn2nnc3ccccc3c2=O)CC[C@@H]1Sc1ccc(-c2ccc(Cl)cc2)cc1 (mixture of isomers) [Example 49, (1R,2S,5R)- and (1S,2R,5S)-2-[(4′-chloro-4-biphenyl)sulphanyl]-5-[(4-oxo-3,4-dihydro-1,2,3-benzotriazin-3-yl)methyl]-1-cyclopentanecarboxylic acid] | 73 | – | –
O=C(NO)C(CCn1nnc2ccccc2c1=O)CSCCc1ccc(-c2ccc(Cl)cc2)cc1 (stereo not shown) [Example 93, 2-{[2-(4′-Chloro-4-biphenyl)ethyl]sulphanylmethyl}-N-hydroxy-4-(4-oxo-3,4-dihydro-1,2,3-benzotriazin-3-yl)butyramide] | 75 | 1900 | –
CNC(=O)[C@H](Cc1ccccc1)NC(=O)[C@H](CC(C)C)[C@H](CSc1cccs1)C(=O)NO [BB94] | – | – | active in ovarian cancers
